Laboratory results reported in EP0160258A2, “(6,11-Dihydro-11-oxodibenz(bm,e)oxepinyl)pentanols, a process and intermediates for their preparation and their use as medicaments” (HOECHST-ROUSSEL PHARMACEUTICALS INCORPORATED, priority 1984, dated 1985).
Where two headings read alike, the source gives them in different places.

System: adjuvant-induced polyarthritis
Experiment: adjuvant-induced polyarthritis syndrome in rats (paw volume)
Assay type: in vivo
Conditions: Rattus norvegicus, 504 h, dose effecting 50 % inhibition of paw volume, oral, day before adjuvant and continued for 21 days, male Charles River-Wistar Lewis rats
Experimental: The (6,11-dihydro-11-oxodibenz[b,e]oxepinyl)pentanols and derivatives thereof of the present invention are useful as antiarthritic agents due to their ability to specifically suppress arthritis-type inflammation in mammals. […] M. Perrone and F. D. Wood, Arthritis and Rheumatism, 2, 440 (1959).
Groups of 10 male Charles River-Wistar Lewis rats weighing 150 to 175 g were individually housed and maintained on a regular rat chow diet. Water was given ad libitum. The adjuvant was prepared by suspending 75 mg of Mycobacterium butyricum (Difeo Laboratories, Detroit, Michigan) in 10 ml of white paraffin oil with continuous stirring for 2 hrs at room temperature prior to administration. Test compounds are prepared by suspending the drug in water, adding one drop of Tween 80 per 10 ml of suspension, and homogenizing. The adjuvant suspension (0.1 ml) was injected into the footpad of the left hind paw of the rat. Test compound suspensions were administered orally (10 ml/kg) the day before adjuvant suspension injection and the administration was continued for 21 days. One group of ten rats was used for the test drug, standard, adjuvant-injected control and non-injected control. Control animals received vehicle (10 ml/kg). Three doses of test drug and one dose of standard preparation were used. Injected and non-injected paw volumes were determined on the day the adjuvant suspension was given, and in subsequent days thereafter (usually days 5, 10, 18 and 21) by the method of C. A. Wilson, et al., Proc. Soc. Exp. Biol. Med., 111 544 (1962).
The percent inhibition of paw volume (injected and non-injected hind paw) was calculated by the following formula: [formula] ED50-values, i.e., the dose at which the drug effects a 50 % inhibition of paw volume, were estimated by the method of J. T. Litchfield and F. Wilcoxon, J. Pharm. Exp. Thes., 96, 99 (1948), and statistically evaluated by means of the sudent "t" test.

[1] = injected hind paw, read-out: ED50 (injected)
[2] = non-injected hind paw, read-out: ED50 (non-injected)

| Structure (SMILES) | ED50 [1] [mg/kg] | ED50 [2] [mg/kg] |
| --- | --- | --- |
| CC(CCCO)c1ccc2c(c1)C(=O)c1ccccc1CO2 (stereo not shown) [4-(6,11-Dihydro-11-oxodibenz[b,e]oxepin-2-yl)pentanol] | 5.6 | 3.9 |
| CCCCC1C(=O)N(c2ccccc2)N(c2ccccc2)C1=O [phenylbutazone] | 12 | 6.8 |
